Source: publication PMC7689089, “Regorafenib combined with PD1 blockade increases CD8 T-cell infiltration by inducing CXCL10 expression in hepatocellular carcinoma” (Journal for Immunotherapy of Cancer, 2020)
Like-named read-outs stand apart in the source and are kept apart here.

Assays:
CXCL10 = experiment: CXCL10/CXCR3 expression in RIL-175 tumor tissue (RNA-seq, ELISA, RNA-Scope ISH, western blot); format: in vivo, mouse; conditions: regorafenib alone at 10 mg/kg and 20 mg/kg; 6 hours after treatment
Method: The RNA-Scope assay was performed according to manufacturer’s instructions.[32] Briefly, formaldehyde-fixed and paraffin-embedded human and mouse HCC tissue blocks were cut in 5 µm sections, pretreated for 30 min, following digestion and hybridization at 40°C in a HybEZ oven with both dual labeling probes antimurine CXCR3 probe (Mm-CXCR3; 402511-C2) and CXCL10 (Mm-CXCL10; 408921) or human CXCL10 (Hs-CXCL10; 311851), all from Advanced Cell Diagnostics. Counterstaining was performed using hematoxylin for 10 s.
(§1) (A) Changes induced by combination of regorafenib (10 mg/kg) with anti-PD1 antibody in immune-related pathways from the gene set enrichment analysis (GSEA) using curated gene sets in RIL-175 HCC model (see also online supplemental dataset S1 and figure S2E). (B, C) Changes induced by combination of regorafenib (10 mg/kg) with anti-PD1 antibody in STAT3 and STAT1 activity (B), showing an increased ratio of phosphorylated (p)-STAT1/p-STAT3 (normalized to total STAT1 and STAT3, respectively) by western blot analysis of whole RIL-175 HCC tissue (C) (n=4 mice). […] (J, K) Combination therapy increases CXCL10 protein expression in whole RIL-175 tumor tissue 6 hours and 12 hours after in vivo when regorafenib treatment was used at doses of 10 mg/kg (R10) and 20 mg/kg (R20) (n=3) by western blot analysis (J); quantitative data of CXCL10/β-actin ratios are shown in (K). […]

STAT3 = experiment: STAT1/STAT3 phosphorylation in RIL-175 HCC tissue; format: in vivo, mouse; conditions: samples of the PK study
Method: as §1, with “mice). (D) Treatment with regorafenib increases CXCL10 expression by RIL-175 HCC cells in vitro after 36 hours, in a dose-dependent manner (n=6). Culture medium alone was used as a negative control (NC).” for “mice).”
Flow cytometry analysis. […] After preparation, cells were suspended in 2ml of PBS with 2% BSA, then counted using a cell counting plate (Kova slide) (if the final concentration of cell exceeded 10^7 cells/ml, a dilution factor was applied). […]

[1] = in vivo
Method: (§2) From the orthotopic HCC and liver damage mouse models described above, blood samples were collected at 1, 4, 7 and 24 hours after once-daily oral administration of 5, 10 and 20 mg/kg regorafenib, respectively, for 5 days. Anti-PD1 antibody was given on days 1 and 4 with dose of 10 mg/kg by intraperitoneal injection. Blood samples were drawn from four to five animals per sampling time point. Regorafenib and its active metabolites M-2, M-4 and M-5 were analyzed in plasma samples using a validated bioanalytical liquid chromatography-tandem mass spectrometry.[25 33] Pharmacokinetic (PK) parameters were derived from the area under the plasma concentration versus time curve (AUC) using a non-compartmental analysis.
(§3) In addition, we evaluated PK parameters in HCC-bearing mice after regorafenib administration alone at doses of 5, 10 and 20 mg/kg or in combination with anti-PD1 therapy at the 10 mg/kg regorafenib dose for 5 days to achieve a steady state.

in vivo = conditions: C57Bl/6, mouse, po; for AUC: Plasma AUC; for Cmax: Plasma Cmax
Method: as §2, §3

## CNC(=O)c1cc(Oc2ccc(NC(=O)Nc3ccc(Cl)c(C(F)(F)F)c3)c(F)c2)ccn1 [regorafenib]
CXCL10
  CXCL10 protein in whole tumor tissue lysate (western blot): increased protein levels
STAT3
  Phosphorylated (p)STAT3 levels in HCC tissues: inhibited
[1]; C57Bl/6, mouse, po, 5 mg/kg
  Tumor AUC: 2.32 µg·h/mL
  Tumor AUCnorm: 0.465 kg·h/L
  Tumor Cmax: 191 µg/kg
[1]; C57Bl/6, mouse, po, 10 mg/kg
  Plasma AUC: 2140 µg·h/L
  Plasma Cmax: 190 µg/L
  Tumor AUC: 4.67 µg·h/mL
  Tumor AUCnorm: 0.467 kg·h/L
  Tumor Cmax: 291 µg/kg
[1]; C57Bl/6, mouse, po, 20 mg/kg
  Tumor AUC: 7.93 µg·h/mL
  Tumor AUCnorm: 0.396 kg·h/L
  Tumor Cmax: 575 µg/kg
[1]; mouse
  Cmax in the tumor tissue, combination group versus R10 group: higher
  Plasma AUC0–24 and Cmax versus dose: dose-proportional
  Tumor AUC0–24 and Cmax versus dose: dose-proportional increase
[1]; mouse, po, 5 mg/kg
  Plasma AUCnorm: 0.290 kg·h/L
[1]; mouse, po, 10 mg/kg
  Plasma AUCnorm: 0.241 kg·h/L
[1]; mouse, po, 20 mg/kg
  Plasma AUCnorm: 0.287 kg·h/L
In vivo; 5 mg/kg
  AUC: 1450 ng·h/mL
  Cmax: 108 ng/mL
In vivo; 10 mg/kg
  AUC: 2160 ng·h/mL
  Cmax: 201 ng/mL
In vivo; 10 mg/kg, Plasma Tmax
  Tmax: 1 h
In vivo; 10 mg/kg, Tumor Tmax
  Tmax: 7 h
In vivo; 20 mg/kg
  AUC: 5750 ng·h/mL
  Cmax: 485 ng/mL
